Results: patent publication US20130261154A1 (priority 2010, published 2013)

Tests used:
Format in all cases: in vivo
Phytophthora infestans [1] = conditions: tomato seedlings; inoculated, 17 h later sprayed to run-off; visual disease rating; test concentration not given
Phytophthora infestans [2] = conditions: tomato seedlings; sprayed to run-off, inoculated the following day; visual disease rating; test concentration not given
Plasmopara viticola = assay: Test A: grape downy mildew, spray after inoculation of grape seedlings; conditions: inoculated, 24 h later sprayed to run-off, visual disease rating, test concentration not given
Source text: General protocol for preparing test suspensions for Test A-C: The test compounds were first dissolved in acetone in an amount equal to 3% of the final volume and then suspended at the desired concentration (in ppm) in acetone and purified water (50/50 mix by volume) containing 250 ppm of the surfactant Trem® 014 (polyhydric alcohol esters). The resulting test suspensions were then used in Tests A-C. Spraying a 40 ppm test suspension to the point of run-off on the test plants was equivalent to a rate of 160 g/ha.
Grape seedlings were inoculated with a spore suspension of Plasmopara viticola (the causal agent of grape downy mildew) and incubated in a saturated atmosphere at 20° C. for 24 h. After a short drying period, the test suspension was sprayed to the point of run-off on the grape seedlings, which were then moved to a growth chamber at 20° C. for 5 days, after which time the grape seedling were placed back into a saturated atmosphere at 20° C. for 24 h. Upon removal, visual disease ratings were made.
Results for Tests A-C are given in Table A. In the table, a rating of 100 indicates 100% disease control and a rating of 0 indicates no disease control (relative to the controls).

Row | SMILES | Test C disease control rating (100 = 100% disease control, 0 = no disease control relative to the controls) (Phytophthora infestans [1]) [%] | Test B disease control rating (100 = 100% disease control, 0 = no disease control relative to the controls) (Phytophthora infestans [2]) [%] | Test A disease control rating (100 = 100% disease control, 0 = no disease control relative to the controls) (Plasmopara viticola) [%]
1 | Cc1cc(C(F)(F)F)nn1CC(=O)N1CCC(c2nc(C3=NOC(COCN4C(=O)c5ccccc5C4=O)C3)cs2)CC1 (stereo not drawn) [Compound 3, 2-[[[4,5-dihydro-3-[2-[1-[2-[5-methyl-3-(trifluoromethyl)-1H-pyrazol-1-yl]acetyl]-4-piperidinyl]-4-thiazolyl]-5-isoxazolyl]methoxy]methyl]-1H-isoindole-1,3(2H)-dione] | 46 | 95 | 40
2 | Cc1cc(C(F)(F)F)nn1CC(=O)N1CCC(c2nc(C3=NOC(CCCOc4c(F)cccc4F)C3)cs2)CC1 (stereo not drawn) [Compound 11] | 99 | 100 | 100
3 | Cc1cc(C(F)(F)F)nn1CC(=O)N1CCC(c2nc(C3=NOC(COc4c(F)cccc4F)C3)cs2)CC1 (stereo not drawn) [Compound 10] | 64 | 100 | 0
4 | Cc1cc(C(F)(F)F)nn1CC(=O)N1CCC(c2nc(C3=NOC(CCOc4c(F)cccc4F)C3)cs2)CC1 (stereo not drawn) [Compound 2, 1-[4-[4-[5-[2-(2,6-difluorophenoxy)ethyl]-4,5-dihydro-3-isoxazolyl]-2-thiazolyl]-1-piperidinyl]-2-[5-methyl-3-(trifluoromethyl)-1H-pyrazol-1-yl]ethanone] | 99 | 100 | 96
5 | Cc1cc(C(F)(F)F)nn1CC(=O)N1CCC(c2nc(C3=NOC(CC(=O)Nc4c(F)cccc4F)C3)cs2)CC1 (stereo not drawn) [Compound 6] | 46 | 9 | 0
6 | COc1cc(F)c(OCCC2CC(c3csc(C4CCN(C(=O)Cn5nc(C(F)(F)F)cc5C)CC4)n3)=NO2)c(F)c1 (stereo not drawn) [Compound 18] | 17 | 71 | 79
7 | Cc1cc(C(F)(F)F)nn1CC(=O)N1CCC(c2nc(C3=NOC(CCOc4ccccc4I)C3)cs2)CC1 (stereo not drawn) [Compound 1] | 91 | 99 | 86
8 | COc1ccc(OCCC2CC(c3csc(C4CCN(C(=O)Cn5nc(C(F)(F)F)cc5C)CC4)n3)=NO2)c(F)c1 (stereo not drawn) [Compound 13] | 95 | 100 | 100
9 | Cc1cc(C(F)(F)F)nn1CC(=O)N1CCC(c2nc(C3=NOC(CCCn4c(=O)sc5ccc(Cl)cc54)C3)cs2)CC1 (stereo not drawn) [Compound 8, 5-chloro-3-[3-[4,5-dihydro-3-[2-[1-[2-[5-methyl-3-(trifluoromethyl)-1H-pyrazol-1-yl]acetyl]-4-piperidinyl]-4-thiazolyl]-5-isoxazolyl]propyl]-2(3H)-benzothiazolone] | 0 | 100 | 0
10 | COc1cc(F)c(OCC2CC(c3csc(C4CCN(C(=O)Cn5nc(C(F)(F)F)cc5C)CC4)n3)=NO2)c(F)c1 (stereo not drawn) [Compound 16] | 99 | 100 | 99
11 | Cc1cc(C(F)(F)F)nn1CC(=O)N1CCC(c2nc(C3=NOC(CCOc4c(F)cc(C#N)cc4F)C3)cs2)CC1 (stereo not drawn) [Compound 14] | 73 | 100 | 99
12 | Cc1cc(C(F)(F)F)nn1CC(=O)N1CCC(c2nc(C3=NOC(CCON4C(=O)c5ccccc5C4=O)C3)cs2)CC1 (stereo not drawn) [Compound 9] | 73 | 99 | 0
13 | Cc1cc(C(F)(F)F)nn1CC(=O)N1CCC(c2nc(C3=NOC(CCOc4ccc(C#N)cc4F)C3)cs2)CC1 (stereo not drawn) [Compound 15] | 99 | 100 | 100
14 | Cc1cc(C(F)(F)F)nn1CC(=O)N1CCC(c2nc(C3=NOC(CCCCOc4c(F)cccc4F)C3)cs2)CC1 (stereo not drawn) [Compound 12] | 92 | 99 | 100
15 | COC(=O)c1ccc(OCCC2CC(c3csc(C4CCN(C(=O)Cn5nc(C(F)(F)F)cc5C)CC4)n3)=NO2)c(F)c1 (stereo not drawn) [Compound 17] | 99 | 100 | 100
16 | Cc1cc(C(F)(F)F)nn1CC(=O)N1CCC(c2nc(C3=NOC(CCCN4C(=O)c5ccccc5C4=O)C3)cs2)CC1 (stereo not drawn) [Compound 5] | 99 | 100 | 67
17 | Cc1cc(C(F)(F)F)nn1CC(=O)N1CCC(c2nc(C3=NOC(CC(=O)NCc4c(F)cccc4F)C3)cs2)CC1 (stereo not drawn) [Compound 4, N-[(2,6-difluorophenyl)methyl]-4,5-dihydro-3-[2-[1-[2-[5-methyl-3-(trifluoromethyl)-1H-pyrazol-1-yl]acetyl]-4-piperidinyl]-4-thiazolyl]-5-isoxazoleacetamide] | 99 | 100 | 24
